According to patent publication US9155784B2, “Anti-TNF-α therapy for the mucopolysaccharidoses and other lysosomal disorders” (Icahn School of Medicine at Mount Sinai, priority 2011, dated 2015):

How the values were obtained:
Assay type in all cases: in vivo, rat
articular chondrocytes = assay: Immunoblot of articular chondrocytes from treated MPS VI rats; details: western blot, vs untreated MPS VI
Source text: Tracheas, femora, and tibias were collected from the control and treated MPS VI rats, and placed in either phosphate buffered saline for the isolation of fibroblast-like synoviocytes (FLS) and articular chondrocytes, or fixed in neutral buffered 10% formalin (Sigma Chemical) for histology, microCT analysis, and immunohistochemistry (see infra). The fixed bones were decalcified in 8% formic acid (Sigma Chemical) for 5 days, paraffin embedded, and sectioned (5 μm) for subsequent staining Primary FLS and articular chondrocyte cultures were established as previously described (Simonaro et al., “Joint and Bone Disease in Mucopolysaccharidosis VI and VII: Identification of New Therapeutic Targets and Biomarkers Using Animal Models,” Pediatr. Res. 57:701-707 (2005); Simonaro et al., “Mechanism of Glycosaminoglycan-Mediated Bone & Joint Disease: Implications for the Mucopolysaccharidoses & Other Connective Tissue Diseases,” Amer. J. Path. 172:112-122 (2008), both of which are hereby incorporated by reference in their entirety), and expression of inflammatory and apoptosis markers were assessed by western blotting.
Articular chondrocytes from 37-week-old normal, untreated and treated MPS VI rats were collected using sequential enzyme digestion of cartilage, pelleted and lysed for immunoblot analysis as previously described (Simonaro et al., “Mechanism of Glycosaminoglycan-Mediated Bone & Joint Disease: Implications for the Mucopolysaccharidoses & Other Connective Tissue Diseases,” Amer. J. Path. 172:112-122 (2008), which is hereby incorporated by reference in its entirety). The membranes were incubated with rabbit polyclonal anti-collagen type IIA1 (sc-8784-R, Santa Cruz Biotechnology), rabbit polyclonal anti-collagen type X (AB58632, Abcam), rabbit polyclonal anti-ADAMTS5 (sc-28887, Santa Cruz Biotechnology), rabbit polyclonal anti-PARP (sc-7150, Santa Cruz Biotechnology), and rabbit polyclonal anti-GAPDH (sc-25778, Santa Cruz Biotechnology), as a loading control. The bound antibodies were recognized by secondary antibodies conjugated to HRP (NA934V), GE Healthcare). […]

ceramide = assay: Trachea ceramide immunohistochemistry, MPS VI rats; details: 37 weeks of age
Protocol: Tracheas from 37-week-old normal, untreated MPS VI and treated MPS VI rats were fixed, embedded, sectioned, and prepared as described above. Sections were incubated overnight with primary mouse monoclonal anti-ceramide antibody (MID 15B4, Alexis Corporation) and visualization was accomplished using a fluorescent secondary antibody, donkey anti-goat IgG-Cy-3 (711-165-152, Jackson Laboratory). Slides were visualized and photographed with a confocal laser-scanning microscope (Carl Zeiss 510 Meta).

MPS VI rats [1] = assay: MicroCT analysis of bone micro-architecture (trabecular, cortical, robustness), MPS VI rats; details: mid-diaphyseal femur, vs untreated; fell short of statistical significance
Protocol: Three-dimensional images of the 37-week-old femora from age-matched normal, untreated and treated MPS VI rats were obtained using the eXplore Locus SP PreClinical Specimen microCT system (GE Healthcare; London, Ontario, Canada). Scans were performed at a voxel size of 14.4 μm. The scan protocol consisted of 3600 image acquisitions over a five hour scan (acquisition parameters: 80 kVp, 80 uA, 3 second exposure time [˜690], 0.010″ aluminum beam filter). A calibration phantom containing air, water, and hydroxyapatite (SB3: Gamex RMI, Middleton, Wis., USA) was included in all scans to adjust for the variability in X-ray attenuation inherent to independent scan sessions.
A representative mid-diaphyseal region of each femoral microCT image was isolated for analysis. […] The analysis region was not restricted by measured size to accommodate variances in bone length. […] The MicroView software was employed to quantify morphological traits.
The microCT images were further processed to quantify the tissue mineral density (TMD) of cortical bone within each sample. […] TMD was calculated by converting the gray-scale values of bone voxels from Hounsfield units (HU) to mineral values (mg/cc of HA) through the use of a calibration phantom containing air, water, and HA (Gamex RMI, Middleton, Wis., USA). […]

MPS VI rats [2] = assay: Synovium / knee joint histology, MPS VI rats; details: MPS VI rats treated 8 months, knee cross sections
Protocol: Femora from 37-week-old normal, untreated MPS VI and treated MPS VI rats were fixed, embedded, sectioned, and stained with toluidine blue and H & E. Immunohistochemical studies were performed as well. For immunohistochemistry, sections were fixed with 4% paraformaldehyde/PBS, permeabilized with 0.5% Triton-X-100, blocked, and incubated overnight at 4° C. with primary rabbit polyclonal anti-mouse collagen type IIA1 (rabbit polyclonal […], Santa Cruz Biotechnology) and TNF-α antibody (goat polyclonal sc-1348, Santa Cruz Biotechnology). After several rinses with PBS, visualization was accomplished using a fluorescent secondary antibody, donkey anti-goat IgG-Cy-3 (711-165-152, Jackson Laboratory). Nuclei were stained with 1 mg/ml bis-benzimide Hoechst dye (Sigma-Aldrich) for 10 min, rinsed, and sections were mounted with an anti-bleaching mounting media. Slides were visualized and photographed with a confocal laser-scanning microscope (Carl Zeiss 510 Meta).
FIG. 1A summarizes the serum levels of TNF-α and RANKL at the end of the study. Both inflammatory markers were highly elevated in untreated MPS VI rats as compared to normal animals, and both treatment protocols led to significant reductions. […] The synovial membranes (*) were hyperplastic in untreated MPS VI rats, leading to the formation of synovial villi (SV). […]

With “recombinant human N-acetylgalactosamine-4-sulfatase [ERT]” the “ADAMTS5 expression in articular chondrocytes” value (articular chondrocytes) was “reduced”, the “PARP (apoptosis marker) expression in articular chondrocytes” value (articular chondrocytes) was “only reduced by the combined treatment protocol” and the “collagen X expression in articular chondrocytes” value (articular chondrocytes) was “increased”. The “ceramide staining in tracheal epithelial cells” value (ceramide) was “strong ceramide staining”, the “cortical area and relative cortical area” value (MPS VI rats [1]) was “greater” and the “synovial inflammation and formation of villi” value (MPS VI rats [2]) was “did not reduce”.
